Reference: patent publication US20260256741A1, “ANTICANCER MALEIMIDE DERIVATIVES FOR USE WITH IMMUNE CHECKPOINT BLOCKADE” (BROWN UNIVERSITY, priority 2022, published 2026)

Assays:
Assay type in all cases: cell-based, human
SW480 tumor cells = assay: Multicolor co-culture of SW480 tumor cells and donor-derived CD8+ T cells, EthD-1 dead cells; conditions: for percentage of dead cells (average, normalized): then co-culture with donor-derived CD8+ T cells; for percentage of dead cells out of total cells (average, normalized): co-culture with donor-derived CD8+ T cells, 24 hours
Protocol: An Easy Step Human CD8+ T Cell Isolation Kit was used to isolate CD8+ T cells from a donor PBMC sample via negative selection (Cat #, 17913, Stem Cell Technologies, Vancouver, Canada).
10,000 HCT-116, SW480, or HT-29 cells were plated per well in a clear-bottom, black-walled 48-well tissue culture plate and were allowed to adhere overnight. Cells were subsequently treated with DMSO, 5 μM or 10 μM elraglusib, and/or 10,000 TALL-104 or NK-92 cells (for an effector-to-tumor ratio of 1:1) for 24 hours. CRC cells were labeled using CellTracker™ Green CMFDA (5-chloromethylfluorescein diacetate), immune cells (NK-92, TALL-104) were labeled using CellTracker™ Blue CMAC Dye (7-amino-4-chloromethylcoumarin), and ethidium homodimer-1 (EthD-1) was used as a marker of cell death (Invitrogen, Waltham, MA). 10× images were captured using a Nikon Ti-U Inverted Fluorescence Microscope and NIS-Elements F Package imaging software 3.22.00 Build 710 (Nikon Instruments Inc, USA). The number of red/green color cells in random fields was determined using thresholding and particle analysis in the Fiji modification (RRID: SCR_002285) of ImageJ and expressed as a dead/live cell ratio. Normalization was carried out by subtracting the percentage of cell death due to drug or vehicle control (DMSO) only from the percentage of dead cells observed in the co-culture of tumor and immune cells treated with the drug. At least 100 cells were evaluated per sample, with 3 independent replicates. Statistical analysis was done using GraphPad Prism 9 (RRID: SCR_002798).

HCT 116 GFP+ cells = assay: Single-color GFP+ immune cell co-culture, HCT 116; conditions: 48 hours
Protocol: 50,000 HT-29 or HCT 116 cells were seeded in a 12-well tissue culture plate and allowed to adhere overnight. They were then transduced with lentivirus containing the plasmid pLenti_CMV_GFP_Hygro [pLenti CMV GFP Hygro (656-4) was a gift from Eric Campeau & Paul Kaufman (Addgene viral prep #17446-LV; RRID: Addgene_17446)] at a multiplicity of infection of 10 with 8 μg/mL polybrene (hexadimethrine bromide [Cat #107689, Sigma Aldrich, St. Louis, MO, USA) for 24 hours before washing with PBS and replacing with fresh medium (49). The cells were then sorted for GFP-positivity using a BD FACSAria™ III Cell Sorter (RRID: SCR_016695).
5000 HT-29 GFP+ or HCT 116 GFP+ cells were plated per well in a clear-bottom, black-walled 96-well tissue culture plate and were allowed to adhere overnight. Cells were subsequently treated with DMSO, 5 μM elraglusib, and/or 5000 TALL-104 or NK-92 cells (for an effector-to-tumor ratio of 1:1) for 48 hours. Nine images were taken per well at 10× magnification using a Molecular Devices ImageXpress® Confocal HT.ai High-Content Imaging System and quantified for the number of GFP+ objects using the MetaXpress (RRID: SCR_016654) software (Molecular Devices, San Jose, CA, USA). 40× Images were also taken at 24 hours for representative images of cellular morphology changes. Statistical analysis was done using GraphPad Prism 9 (RRID: SCR_002798).

HT-29 CRC cells = assay: Western blot analysis of HT-29 CRC cells
Protocol: Recombinant Human TNF-α (Cat #300-01A, PeproTech, Rocky Hill, NJ, USA) and Recombinant Human IFN-γ (Cat #300-02, Peprotech, Rocky Hill, NJ, USA) were purchased for use in western blot analysis while rhTRAIL was generated in-house. Kim et al., J Biol Chem., 279(38):40044-52 (2004).
Cells were plated in a 6-well plate and incubated overnight before the spent media was replaced with drugged media. Drug treatment lasted for indicated durations. Protein was extracted using radioimmunoprecipitation (RIPA) assay buffer (Cat #R0278, Sigma-Aldrich, St. Louis, MO) containing cOmplete™, Mini, EDTA-free Protease Inhibitor Cocktail (Cat #4693159001, Roche, Basel, Switzerland) from sub-confluent cells. Denaturing sample buffer was added, samples were boiled at 95 degrees for 10 minutes, and an equal amount of protein lysate was electrophoresed through NuPAGE™ 4 to 12%, Bis-Tris, 1.5 mm, Mini Protein Gels (Invitrogen, Waltham, MA) then transferred to PVDF membranes. The PVDF membrane was blocked with 5% non-fat milk (Sigma-Aldrich, St. Louis, MO) in 1×TTBS. Primary antibodies were incubated with the transferred PVDF membrane in blocking buffer at 4° C. overnight. Secondary antibodies used included Goat anti-Rabbit IgG (H+L) Secondary Antibody, HRP (Cat #31460, Invitrogen, Waltham, MA), and Goat anti-Mouse IgG (H+L) Secondary Antibody, HRP (Cat #31430, Invitrogen, Waltham, MA). Signal was detected using Pierce™ ECL Western Blotting Substrate (Cat #32106, Thermo Scientific, Waltham, MA, USA) and a Syngene Imaging System (RRID: SCR_015770).

NK-92 cells = assay: Microarray gene expression analysis, NK-92; conditions: IC-50 concentration (1 μM), 24 hours; FC cutoff >1.5, <−1.5, p<0.05
Protocol: (§1) A total of 0.5×10^6 tumor cells (HCT-116, HT-29, KM12C) were plated in a 6-well plate and allowed to adhere overnight before 24-hour treatment as indicated. 1×10^6 immune cells (NK92, TALL-104) were plated and treated with elraglusib as indicated for 24 hours. RNA was isolated from cell pellets in batches of 6 using an RNeasy Plus Mini Kit (Cat #74134, Qiagen, Hilden, Germany). Acceptable RNA concentration and quality were verified with Nanodrop and Bioanalyzer measurements. GeneChip™ Human Transcriptome Array 2.0 assays were conducted according to manufacturer instructions in two batches using randomized samples to limit batch effects (Cat #902162, Applied Biosystems, Waltham, MA, USA). Applied Biosystems Transcriptomic Analysis Console (TAC) software (RRID: SCR_016519) was used to calculate fold changes in gene expression relative to the untreated control cells. Values were considered statistically significant for p values <0.05.

TALL-104 cells = assay: Microarray gene expression analysis, TALL-104
Protocol: as §1

[1] = especially at later timepoints (48, 72 hr)

**Q.** Which “percentage of dead cells (average, normalized)” value (SW480 tumor cells; 10 μM for 24 hours) does the source give for `Cn1cc(C2=C(c3coc4ccc(F)cc34)C(=O)NC2=O)c2cc3c(cc21)OCO3` [elraglusib, 3-(5-fluorobenzofuran-3-yl)-4-(5-methyl-5H-[1,3]dioxolo[4,5-f]indol-7-yl)-1H-pyrrole-2,5-dione] here?
**A.** Its value is 70%.

**Q.** What about the “percentage of dead cells out of total cells (average, normalized)” value (SW480 tumor cells; 5 μM) of the same compound?
**A.** Its value is 65%.

**Q.** What about the “percentage of dead cells out of total cells (average, normalized)” value (SW480 tumor cells; 10 μM) of the same compound?
**A.** The value was 75%.

**Q.** What about the “tumor cell death in SW480 monocultures” value (SW480 tumor cells; drug only, no immune cells) of the same compound?
**A.** Its value is “limited tumor cell death”.

**Q.** What about the “percentage of dead cells (average, normalized)” value (SW480 tumor cells; tumor cells pre-treated with 5 μM for 24 hours) of the same compound?
**A.** Its value is 65%.

**Q.** And the tumor cell death (HCT 116 GFP+ cells; 5 μM elraglusib and NK-92 cells vs drug-only or immune cell-only)?
**A.** Its tumor cell death is “increased tumor cell death”.

**Q.** And the “GFP+ cells per low-powered field” value (HCT 116 GFP+ cells; 5 μM elraglusib only vs DMSO only control)?
**A.** The value was “significant decrease”.

**Q.** And the “number of GFP+ cells per field” value (HCT 116 GFP+ cells; TALL-104 and 5 μM elraglusib vs TALL-104 only)?
**A.** The value was “significant decrease”.

**Q.** And the “NF-κB p65 expression” value (HT-29 CRC cells; as the 0-72 hour time-course progressed)?
**A.** Its value is “decreased expression”.

**Q.** And the PD-L1 expression (HT-29 CRC cells; as the treatment duration increased (0-72 hours))?
**A.** The PD-L1 expression was “increases in PD-L1 expression”.

**Q.** And the Bcl-2 protein expression (HT-29 CRC cells; [1])?
**A.** The Bcl-2 protein expression was “decreases in protein expression”.

**Q.** And the Survivin protein expression (HT-29 CRC cells; [1])?
**A.** The Survivin protein expression was “decreases in protein expression”.

**Q.** What about the “cleaved PARP (cPARP)” value (HT-29 CRC cells; low dose as in co-culture assays, until the 48-hour timepoint of 72-hour timecourse) of the same compound?
**A.** Its value is “little to no cleaved PARP”.

**Q.** What about the “differentially expressed genes post-treatment” value (NK-92 cells) of the same compound?
**A.** The value was 61.

**Q.** And the “CCL3 gene expression fold change” value (TALL-104 cells; 24 hours vs DMSO)?
**A.** The value was 1.52 FC.

**Q.** And the “KIF7 gene expression fold change” value (TALL-104 cells; 24 hours vs DMSO)?
**A.** The value was 1.56 FC.

**Q.** What about the “PTPN3 gene expression fold change” value (TALL-104 cells; 24 hours vs DMSO) of the same compound?
**A.** Its value is −1.56 FC.

**Q.** What about the “differentially expressed genes post-treatment” value (TALL-104 cells; IC-50 concentration (1 μM), 24 hours, FC cutoff >1.5, <−1.5, p<0.05) of the same compound?
**A.** Its value is 64.
